For the test, the target named is PKMYT1 (Homo sapiens (Human), UniProt Q99640). In words: PKMYT1 HTRF Assay. Format: binding. The conditions noted are these: Tracer 178, GST-Tb; compound 10 μM to 0.5 nM; read-out: MYT1 HTRF IC50. As to the method: Example A: PKMYT1 HTRF Assay
Compound serial dilution is performed by Echo, and the final concentrations vary from 10 μM to 0.5 nM. This was filled by the addition of 5 μL/well of Enzyme solution to the assay plate containing the compound. The plate was centrifuged at 1000 rpm for 1 minute, and incubate 15 minutes at 25 ? . Then 5 μL/well of tracer solution (Tracer 178) was added to initiate the reaction, and incubate for 60 minutes at 25° C. Next 5 μL GST-Tb was added into the assay plate, the plate was centrifuged at 1000 rpm for 1 minute, and incubate for 15 minutes at 25 ? . The assay plate was read on Envision.

The values below come from patent publication US20250136596A1, “MEMBRANE-ASSOCIATED TYROSINE- AND THREONINE-SPECIFIC CDC2-INHIBITORY KINASE (PKMYT1) INHIBITORS AND USES THEREOF” (Insilico Medicine IP Limited, priority 2022, published 2025).

Sequence of PKMYT1 (Q99640 whole entry): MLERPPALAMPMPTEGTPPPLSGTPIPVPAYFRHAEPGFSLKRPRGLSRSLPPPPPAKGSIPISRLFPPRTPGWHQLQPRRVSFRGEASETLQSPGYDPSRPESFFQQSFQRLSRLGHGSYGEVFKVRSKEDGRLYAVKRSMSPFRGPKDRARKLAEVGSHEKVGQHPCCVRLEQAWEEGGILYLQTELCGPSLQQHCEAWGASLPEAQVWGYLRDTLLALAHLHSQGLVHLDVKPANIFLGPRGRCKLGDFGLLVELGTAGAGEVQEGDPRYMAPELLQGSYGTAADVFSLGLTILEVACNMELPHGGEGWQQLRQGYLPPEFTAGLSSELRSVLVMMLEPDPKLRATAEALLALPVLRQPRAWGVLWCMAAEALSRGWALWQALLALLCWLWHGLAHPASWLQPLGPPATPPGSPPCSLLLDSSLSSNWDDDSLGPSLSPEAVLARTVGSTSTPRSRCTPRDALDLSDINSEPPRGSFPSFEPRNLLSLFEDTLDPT

Turning to `Cc1ncc(-c2[nH]c3ncc(-c4c(C)ccc(O)c4C)nc3c2F)cn1` [Example 12, 3-(7-fluoro-6-(2-methylpyrimidin-5-yl)-5H-pyrrolo[2,3-b]pyrazin-2-yl)-2,4-dimethylphenol], the IC50 lay in the range of 10 to 50 nM.

For `Cc1ncc(-c2[nH]c3ncc(-c4c(C)ccc(O)c4C)nc3c2C)cn1` [Example 13, 2,4-dimethyl-3-(7-methyl-6-(2-methylpyrimidin-5-yl)-5H-pyrrolo[2,3-b]pyrazin-2-yl)phenol], the IC50 fell in the range of 10 to 50 nM.

Regarding `Cc1ccc(O)c(C)c1-c1cnc2[nH]c(-c3cnc(N)nc3)c(C#CC(C)(C)O)c2n1` [Example 14, 3-(6-(2-aminopyrimidin-5-yl)-7-(3-hydroxy-3-methylbut-1-yn-1-yl)-5H-pyrrolo[2,3-b]pyrazin-2-yl)-2,4-dimethylphenol], the IC50 is less than 10 nM.

As to `Cc1ncc(-c2cc3nc(-c4c(C)ccc(O)c4C)cnc3[nH]2)cn1` [Example 15, 2,4-dimethyl-3-(6-(2-methylpyrimidin-5-yl)-5H-pyrrolo[2,3-b]pyrazin-2-yl)phenol], the 50% inhibitory concentration (IC50) was 10 to 50 nM.

`Cc1ncc(-c2[nH]c3ncc(-c4c(C)ccc(O)c4C)nc3c2Cl)cn1` [Example 16, 3-(7-chloro-6-(2-methylpyrimidin-5-y1)-5H-pyrrolo[2,3-b]pyrazin-2-yl)-2,4-dimethylphenol]: the half-inhibitory concentration (IC50) was less than 10 nM.

On to `Cc1ccc(O)c(C)c1-c1cnc2[nH]c(-c3cnc(N4CC(C)(O)C4)nc3)c(Cl)c2n1` [Example 17, 1-(5-(7-chloro-2-(3-hydroxy-2,6-dimethylphenyl)-5H-pyrrolo[2,3-b]pyrazin-6-yl)pyrimidin-2-yl)-3-methylazetidin-3-ol], for which the IC50 is less than 10 nM.

Turning to `Cc1ccc(O)c(C)c1-c1cnc2[nH]c(-c3cnc(N4CC(O)C4)nc3)cc2n1` [Example 18, 1-(5-(2-(3-hydroxy-2,6-dimethylphenyl)-5H-pyrrolo[2,3-b]pyrazin-6-yl)pyrimidin-2-yl)azetidin-3-ol], the IC50 was less than 10 nM.

With `Cc1ncc(-c2cc3nc(-c4c(C)ccc(O)c4C)cnc3[nH]2)s1` [Example 19, 2,4-dimethyl-3-(6-(2-methylthiazol-5-y1)-5H-pyrrolo[2,3-b]pyrazin-2-yl)phenol], the IC50 was in the range of 10 to 50 nM.

Consider `Cc1ncc(-c2[nH]c3ncc(-c4c(C)ccc(O)c4C)nc3c2C#CC(C)(C)O)cn1` [Example 20, 3-(7-(3-hydroxy-3-methylbut-1-yn-1-yl)-6-(2-methylpyrimidin-5-yl)-5H-pyrrolo[2,3-b]pyrazin-2-yl)-2,4-dimethylphenol], for which the IC50 was less than 10 nM.

On to `Cc1ccc(O)c(C)c1-c1cnc2[nH]c(-c3cnc(N4C[C@@H]5C[C@H]4CO5)nc3)c(C#CC(C)(C)O)c2n1` [Example 21, 3-(6-(2-((1S,4S)-2-oxa-5-azabicyclo[2.2.1]heptan-5-yl)pyrimidin-5-yl)-7-(3-hydroxy-3-methylbut-1-yn-1-yl)-5H-pyrrolo[2,3-b]pyrazin-2-yl)-2,4-dimethylphenol], for which the IC50 is less than 10 nM.

Regarding `Cc1ccc(O)c(C)c1-c1cnc2[nH]c(-c3ccc4scnc4c3)cc2c1` [Example 22, 3-(2-(benzo[d]thiazol-5-yl)-1H-pyrrolo[2,3-b]pyridin-5-yl)-2,4-dimethylphenol], the IC50 lay in the range of 50 to 500 nM.

`Cc1ncc(-c2[nH]c3ncc(-c4c(C)ccc(O)c4C)c(Cl)c3c2F)cn1` [Example 24, (S)-3-(4-chloro-3-fluoro-2-(2-methylpyrimidin-5-yl)-1H-pyrrolo[2,3-b]pyridin-5-yl)-2,4-dimethylphenol]: the IC50 was less than 10 nM.

Regarding `Cc1ccc(O)c(C)c1-c1cnc2[nH]c(-c3cnc(N4CC(C)(O)C4)nc3)cc2c1Cl` [Example 25, (S)-1-(5-(4-chloro-5-(3-hydroxy-2,6-dimethylphenyl)-1H-pyrrolo[2,3-b]pyridin-2-yl)pyrimidin-2-yl)-3-methylazetidin-3-ol], the IC50 is less than 10 nM.

Regarding `Cc1ncc(-c2cc3c(C)c(-c4c(C)ccc(O)c4C)cnc3[nH]2)cn1` [Example 26, (R)-2,4-dimethyl-3-(4-methyl-2-(2-methylpyrimidin-5-yl)-1H-pyrrolo[2,3-b]pyridin-5-yl)phenol], the IC50 is less than 10 nM.

In the case of `Cc1ncc(-c2[nH]c3ncc(-c4c(C)ccc(O)c4C)cc3c2C#N)cn1` [Example 27, 5-(3-hydroxy-2,6-dimethylphenyl)-2-(2-methylpyrimidin-5-yl)-1H-pyrrolo[2,3-b]pyridine-3-carbonitrile], the concentration for half-maximal inhibition (IC50) lay within 10 to 50 nM.

`Cc1cnc(-c2cc3cc(-c4c(C)ccc(O)c4C)cnc3[nH]2)cn1` [Example 29, 2,4-dimethyl-3-(2-(5-methylpyrazin-2-yl)-1H-pyrrolo[2,3-b]pyridin-5-yl)phenol]: the half-inhibitory concentration (IC50) fell in the range of 50 to 500 nM.

As to `Cc1ncc(-c2cc3c(N)c(-c4c(C)ccc(O)c4C)cnc3[nH]2)cn1` [Example 30, 3-(4-amino-2-(2-methylpyrimidin-5-yl)-1H-pyrrolo[2,3-b]pyridin-5-yl)-2,4-dimethylphenol], the half-maximal inhibitory concentration (IC50) lay in the range of 50 to 500 nM.

`Cc1ncc(-c2cc3c(C(F)(F)F)c(-c4c(C)ccc(O)c4C)cnc3[nH]2)cn1` [Example 31, (R)-2,4-dimethyl-3-(2-(2-methylpyrimidin-5-yl)-4-(trifluoromethyl)-1H-pyrrolo[2,3-b]pyridin-5-yl)phenol]: the half-maximal inhibitory concentration (IC50) was less than 10 nM.

`Cc1ncc(-c2cc3c(C(N)=O)c(-c4c(C)ccc(O)c4C)cnc3[nH]2)cn1` [Example 34, 5-(3-hydroxy-2,6-dimethylphenyl)-2-(2-methylpyrimidin-5-yl)-1H-pyrrolo[2,3-b]pyridine-4-carboxamide]: the IC50 was in the range of 50 to 500 nM.

Take `Cc1ccc(O)c(C)c1-c1cnc2[nH]c(C3=CCCOC3)cc2c1C#N` [Example 36, 2-(5,6-dihydro-2H-pyran-3-yl)-5-(3-hydroxy-2,6-dimethylphenyl)-1H-pyrrolo[2,3-b]pyridine-4-carbonitrile]: the IC50 was in the range of 10 to 50 nM.

Turning to `Cc1ccc(O)c(C)c1-c1cnc2[nH]c(-c3cnc(N4CCC(F)(F)C4)nc3)cc2c1C#N` [Example 37, 2-(2-(3,3-difluoropyrrolidin-1-yl)pyrimidin-5-yl)-5-(3-hydroxy-2,6-dimethylphenyl)-1H-pyrrolo[2,3-b]pyridine-4-carbonitrile], the IC50 is less than 10 nM.

Consider `Cc1ccc(O)c(C)c1-c1cnc2[nH]c(-c3cnc(N4CCC(F)(F)C4)nc3)c(Cl)c2c1C#N` [Example 38, (R)-3-chloro-2-(2-(3,3-difluoropyrrolidin-1-yl)pyrimidin-5-yl)-5-(3-hydroxy-2,6-dimethylphenyl)-1H-pyrrolo[2,3-b]pyridine-4-carbonitrile], for which the IC50 was less than 10 nM.

For the compound `Cc1ccc(O)c(C)c1-c1cnc2[nH]c(-c3cnc(N)nc3)cc2c1C#N` [Example 39, (R)-2-(2-aminopyrimidin-5-yl)-5-(3-hydroxy-2,6-dimethylphenyl)-1H-pyrrolo[2,3-b]pyridine-4-carbonitrile], the IC50 is less than 10 nM.

For `Cc1ccc(O)c(C)c1-c1cnc2[nH]c(-c3cnc(N)nc3)c(Cl)c2c1C#N` [Example 40, (R)-2-(2-aminopyrimidin-5-yl)-3-chloro-5-(3-hydroxy-2,6-dimethylphenyl)-1H-pyrrolo[2,3-b]pyridine-4-carbonitrile], the IC50 was less than 10 nM.

`Cc1ccc(O)c(C)c1-c1cnc2[nH]c(-c3cnc(N4CC5CC4CO5)nc3)cc2c1C#N` [Example 42, (R)-2-(2-((1S,4S)-2-oxa-5-azabicyclo[2.2.1]heptan-5-yl)pyrimidin-5-yl)-5-(3-hydroxy-2,6-dimethylphenyl)-1H-pyrrolo[2,3-b]pyridine-4-carbonitrile]: the IC50 was less than 10 nM.
